Consider 21 molecules from patent publication US20240174662A1, “SMALL MOLECULE INHIBITORS OF SALT INDUCIBLE KINASES” (Janssen Biotech, Inc., priority 2021, published 2024).

This test addresses SIK2 (Homo sapiens (Human), UniProt Q9H0K1). Nature of the test: SIK2 Enzymatic Assay Version 2 (High ATP). The test is classed as biochemical. The conditions noted are these: 3 mM ATP and 200 μM HDAC5tide final, ADP-Glo Max luminescence. The gist of the method:
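Run at room temperature; SIK2 enzyme at 6 nM (2× final) preincubated with compound 30 min before reaction. ADP formation detected by ADP-Glo Max (2 h reagent, 1 h detection) with luminescence read-out.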

Bounds are passed on as bounds.

Sequence of SIK2 (Q9H0K1 whole entry, species assumed): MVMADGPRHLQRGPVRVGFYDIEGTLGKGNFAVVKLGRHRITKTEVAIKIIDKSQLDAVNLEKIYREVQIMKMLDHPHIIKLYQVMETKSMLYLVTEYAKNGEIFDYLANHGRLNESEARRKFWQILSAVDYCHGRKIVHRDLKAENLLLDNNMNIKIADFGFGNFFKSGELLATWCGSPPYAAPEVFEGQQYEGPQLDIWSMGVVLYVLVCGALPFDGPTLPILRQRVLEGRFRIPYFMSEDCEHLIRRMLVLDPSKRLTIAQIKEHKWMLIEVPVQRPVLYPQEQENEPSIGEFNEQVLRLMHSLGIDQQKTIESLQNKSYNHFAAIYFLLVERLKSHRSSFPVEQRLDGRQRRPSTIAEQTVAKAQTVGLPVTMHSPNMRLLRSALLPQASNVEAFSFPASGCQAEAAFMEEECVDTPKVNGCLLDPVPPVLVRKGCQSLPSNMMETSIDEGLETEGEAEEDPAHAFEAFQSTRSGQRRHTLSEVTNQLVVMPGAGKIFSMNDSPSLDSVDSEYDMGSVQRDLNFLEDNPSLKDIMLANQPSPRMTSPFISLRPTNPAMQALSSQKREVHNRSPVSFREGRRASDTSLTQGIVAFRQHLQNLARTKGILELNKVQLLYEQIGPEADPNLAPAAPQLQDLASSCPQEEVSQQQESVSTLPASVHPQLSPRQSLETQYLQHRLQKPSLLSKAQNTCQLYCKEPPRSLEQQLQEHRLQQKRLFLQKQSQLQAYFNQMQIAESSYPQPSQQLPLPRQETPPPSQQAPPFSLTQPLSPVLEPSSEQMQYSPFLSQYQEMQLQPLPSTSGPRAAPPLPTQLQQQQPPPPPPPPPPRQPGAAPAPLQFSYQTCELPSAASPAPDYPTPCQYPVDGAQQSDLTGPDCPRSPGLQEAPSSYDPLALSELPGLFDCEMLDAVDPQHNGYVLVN

Usually IC50 stands for the concentration that inhibits the measured activity by half. The molecule `CN1CCC[C@@H]1COc1cnn(C)c1-c1ccn2nc(NC(=O)C3CC3)cc2c1` [Example 239, N-[5-[2-methyl-4-[[(2R)-1-methylpyrrolidin-2-yl]methoxy]pyrazol-3-yl]pyrazolo[1,5-a]pyridin-2-yl]cyclopropanecarboxamide] displayed a half-maximal inhibitory concentration (IC50) of 22.7 nM. `Cn1ncc(CO[C@H]2CNCC2(F)F)c1-c1ccn2nc(NC(=O)C3CC3)cc2c1` (single isomer, unassigned) [Example 465, (*S)—N-[5-[4-[(4,4-difluoropyrrolidin-3-yl)oxymethyl]-2-methyl-pyrazol-3-yl]pyrazolo[1,5-a]pyridin-2-yl]cyclopropanecarboxamide] returned a half-inhibitory concentration (IC50) of 74.9 nM. This IC50 lies about 3.3-fold higher than the previous one. `Cc1onc(O[C@H]2C[C@H]3C[C@@H]2CN3)c1-c1ccn2nc(NC(=O)C3CC3)cc2c1` (racemic) [Example 212, Exo-Rac-N-[5-[3-(2-azabicyclo[2.2.1]heptan-5-yloxy)-5-methyl-isoxazol-4-yl]pyrazolo[1,5-a]pyridin-2-yl]cyclopropanecarboxamide]: 46.4 nM corresponded to half-maximal inhibition (IC50).

For the molecule `Cc1cc(Nc2cc3cc(-c4c(O[C@H]5CCN[C@@H]5C)cnn4C)ccn3n2)nc(C)n1` [Example 442, N-(2,6-dimethylpyrimidin-4-yl)-5-[2-methyl-4-[(2R,3S)-2-methylpyrrolidin-3-yl]oxy-pyrazol-3-yl]pyrazolo[1,5-a]pyridin-2-amine], the 50% inhibitory concentration (IC50) is 106 nM. `CNC(=O)c1cc(Nc2cc3cc(-c4c(OC[C@H]5CCN5C)cnn4C)ccn3n2)nc(C)n1` [Example 120, N,2-dimethyl-6-[[5-[2-methyl-4-[[(2R)-1-methylazetidin-2-yl]methoxy]pyrazol-3-yl]pyrazolo[1,5-a]pyridin-2-yl]amino]pyrimidine-4-carboxamide]: the IC50 was determined as 23.7 nM. For `CC(C)c1nccc(Nc2cc3cc(-c4c(O[C@H]5CCN(C)C5)cnn4C)ccn3n2)n1` [Example 270, N-(2-isopropylpyrimidin-4-yl)-5-[2-methyl-4-[(3S)-1-methylpyrrolidin-3-yl]oxy-pyrazol-3-yl]pyrazolo[1,5-a]pyridin-2-amine], 47.7 nM corresponded to half-maximal inhibition (IC50).

The molecule `CO[C@@H]1CN(C)C[C@@H]1Oc1cnn(C)c1-c1ccn2nc(NC(=O)C3CC3)cc2c1` (racemic) [Example 409, (rac-cis)-N-[5-[4-(4-methoxy-1-methyl-pyrrolidin-3-yl)oxy-2-methyl-pyrazol-3-yl]pyrazolo[1,5-a]pyridin-2-yl]cyclopropanecarboxamide] came in with a concentration for half-maximal inhibition (IC50) of 170 nM. For `Cc1nccc(Nc2cc3cc(-c4c(OC[C@H]5CCN5C)cnn4C)ccn3n2)n1` [Example 64, 5-[2-methyl-4-[[(2R)-1-methylazetidin-2-yl]methoxy]pyrazol-3-yl]-N-(2-methylpyrimidin-4-yl)pyrazolo[1,5-a]pyridin-2-amine] the value was 2 nM; for `C[C@@H]1C[C@H]1C(=O)Nc1cc2cc(-c3c(OC[C@H]4CCN4C)cnn3C)ccn2n1` [Example 14, (1R,2R)-2-methyl-N-[5-[2-methyl-4-[[(2R)-1-methylazetidin-2-yl]methoxy]pyrazol-3-yl]pyrazolo[1,5-a]pyridin-2-yl]cyclopropanecarboxamide], 1.7 nM.

Consider `Cc1onc(OC[C@]23CN[C@H](CO2)C3)c1-c1ccn2nc(NC(=O)C3CC3)cc2c1` [Example 81, N-[5-[5-methyl-3-[[(1S,4S)-5-oxa-2-azabicyclo[2.2.1]heptan-4-yl]methoxy]isoxazol-4-yl]pyrazolo[1,5-a]pyridin-2-yl]cyclopropanecarboxamide], for which the concentration for half-maximal inhibition (IC50) turned out to be 9.7 nM. Compared with the last molecule, the IC50 is about 5.7-fold higher.

`Cc1onc(OC[C@@]23CN[C@@H](CO2)C3)c1-c1ccn2nc(NC(=O)C3CC3)cc2c1` [Example 201, N-[5-[5-methyl-3-[[(1R,4R)-5-oxa-2-azabicyclo[2.2.1]heptan-4-yl]methoxy]isoxazol-4-yl]pyrazolo[1,5-a]pyridin-2-yl]cyclopropanecarboxamide] had an IC50 of 42.1 nM. Regarding `CNC(=O)c1cnc(Nc2cc3cc(-c4c(OC[C@H]5CCN5C)cnn4C)ccn3n2)cn1` [Example 133, N-methyl-5-[[5-[2-methyl-4-[[(2R)-1-methylazetidin-2-yl]methoxy]pyrazol-3-yl]pyrazolo[1,5-a]pyridin-2-yl]amino]pyrazine-2-carboxamide], inhibition was half-maximal at 7.1 nM (IC50). `Cc1onc(OC[C@H]2CCN2CC#N)c1-c1ccn2nc(NC(=O)C3CC3)cc2c1` [Example 213, N-[5-[3-[[(2R)-1-(cyanomethyl)azetidin-2-yl]methoxy]-5-methyl-isoxazol-4-yl]pyrazolo[1,5-a]pyridin-2-yl]cyclopropanecarboxamide] had a 50% inhibitory concentration (IC50) of 15.3 nM.

For `CCN1CC[C@@H]1COc1cnn(C)c1-c1ccn2nc(Nc3cc(C)nc(C(F)(F)F)n3)cc2c1` [Example 73, 5-[4-[[(2R)-1-ethylazetidin-2-yl]methoxy]-2-methyl-pyrazol-3-yl]-N-[6-methyl-2-(trifluoromethyl)pyrimidin-4-yl]pyrazolo[1,5-a]pyridin-2-amine], the concentration for half-maximal inhibition (IC50) is less than 0.847 nM.

`CN1CC[C@H](Oc2cnn(C)c2-c2ccn3nc(Nc4ccc5c(n4)CCOC5)cc3c2)C1` [Example 280, N-[5-[2-methyl-4-[(3S)-1-methylpyrrolidin-3-yl]oxy-pyrazol-3-yl]pyrazolo[1,5-a]pyridin-2-yl]-7,8-dihydro-5H-pyrano[4,3-b]pyridin-2-amine] displayed an IC50 of 35.8 nM. For `Cn1ncc(OC[C@H]2CCN2CCF)c1-c1ccn2nc(NC(=O)C3CC3)cc2c1` [Example 241, N-[5-[4-[[(2R)-1-(2-fluoroethyl)azetidin-2-yl]methoxy]-2-methyl-pyrazol-3-yl]pyrazolo[1,5-a]pyridin-2-yl]cyclopropanecarboxamide] the value was 3.5 nM. Molecule `CCN1CC[C@@H]1COc1cnn(C)c1-c1ccn2nc(NC(=O)[C@H]3C[C@@H]3C)cc2c1` [Example 25, (1S,2S)—N-[5-[4-[[(2R)-1-ethylazetidin-2-yl]methoxy]-2-methyl-pyrazol-3-yl]pyrazolo[1,5-a]pyridin-2-yl]-2-methyl-cyclopropanecarboxamide] returned a 50% inhibitory concentration (IC50) of 5.8 nM. For `Cn1ncc(OCC2(N)CC2)c1-c1ccn2nc(NC(=O)C3CC3)cc2c1` [Example 506, N-[5-[4-[(1-aminocyclopropyl)methoxy]-2-methyl-pyrazol-3-yl]pyrazolo[1,5-a]pyridin-2-yl]cyclopropanecarboxamide] the value was 350 nM; for `CN1CC[C@H](Oc2cnn(C)c2-c2ccn3nc(Nc4cc5ccccc5nn4)cc3c2)C1` [Example 342, N-[5-[2-methyl-4-[(3S)-1-methylpyrrolidin-3-yl]oxy-pyrazol-3-yl]pyrazolo[1,5-a]pyridin-2-yl]cinnolin-3-amine], 68.8 nM. On to `Cn1ncc(CO[C@H]2C[C@H]3COC[C@@H](C2)N3)c1-c1ccn2nc(NC(=O)C3CC3)cc2c1` [Example 183, N-[5-[2-methyl-4-[[(1S,5R)-3-oxa-9-azabicyclo[3.3.1]nonan-7-yl]oxymethyl]pyrazol-3-yl]pyrazolo[1,5-a]pyridin-2-yl]cyclopropanecarboxamide], for which half-maximal inhibition (IC50) required 11.7 nM. Then `Cc1cc(Nc2cn3cc(-c4c(OC[C@H]5CCN5C)cnn4C)ccc3n2)nc(C)n1` [Example 485, N-(2,6-dimethylpyrimidin-4-yl)-6-[2-methyl-4-[[(2R)-1-methylazetidin-2-yl]methoxy]pyrazol-3-yl]imidazo[1,2-a]pyridin-2-amine], with 1.1 nM.
